Measurements from ChEMBL document CHEMBL3137356, “MMV Box Cryptosporidium parvum screening set”.

System: Cryptosporidium parvum
Assay: MMV: Cryptosporidium parvum oocysts (Iowa Strain) were prepared for use by treatment with 10 mM HCl (37 degrees C, 10 min) followed by 2 mM sodium taurocholate in phosphate-buffered saline (PBS) with Ca2+ and Mg2+ (16 degrees C, 10 min) in order to stimulate excystation. The high-throughput screen was carried out by inoculating >90% confluent human ileocecal adenocarcinoma (HCT-8) cells (ATCC) with ~5.5 x 10^3 primed oocysts per well. Experimental compounds or DMSO (vehicle) were added three hours after infection, and cells were incubated for 48 hours.
Format: functional

Compound	Inhibition [%]
COc1ccccc1N1C(=N)SC(=Cc2ccc(OCc3ccccc3F)cc2)C1=O	-8.054
CC1CCN(Cc2c(O)ccc3cc(-c4nc5ccccc5s4)c(=O)oc23)CC1	-9.182
COc1cc2c3cc1Oc1c(OC)c(OC)cc4c1C(Cc1ccc(O)c(c1)Oc1ccc(cc1)CC3N(C)CC2)N(C)CC4.Cl (centres undefined)	-14.29
CCOC(=O)C1CCN(C(=O)CN2C(=O)c3ccccc3C2c2c[nH]c3ccccc23)CC1 (centres undefined)	23.12
c1ccc(/C2=N/c3ccccc3/N=C(/c3ccccc3)c3ccccc32)cc1	8.997
CCn1c(SCC(=O)Nc2cc(C(F)(F)F)ccc2Cl)nc2ccccc2c1=O	-35.13
Cl.OC(CNCc1ccccc1)Cn1c2ccccc2c2ccccc21 (centres undefined)	-37.25
CC(C)(C)c1ccc(C2CC3=Nc4ccccc4N(C(=O)c4ccccc4Cl)C(c4ccc(F)cc4)C3=C(O)C2)cc1 (centres undefined)	20.41
Cc1nc2ccccc2c(O)c1CC=C(Cl)Cl	-7.486
CCCCOC(=O)c1ccc(Nc2cc(C)nc3ccc(OC)cc23)cc1	12.32
Cc1cc(C)cc(Nc2cc(C)nc3nc(C(F)(F)F)nn23)c1	-21.92
CC1=C(CC(=O)c2cccc([N+](=O)[O-])c2)C(=O)c2ccccc2C1=O	-15.31
Cc1ccc(NC(=O)Nc2cccc(Cl)c2)cc1F	-0.4391
CCc1ccc(CNCC(O)c2ccccc2)cc1.Cl (centres undefined)	-7.138
Cc1cc(Nc2cccc(F)c2)nc(NCc2ccccc2)n1	-34.09
O=C(c1ccccc1F)N(Cc1ccc(Cl)cc1)c1ccccn1	-0.1452
CC(C)(C)c1ccc(C(=O)Nc2c3c(nn2-c2cccc(Cl)c2)CSC3)cc1	7.325
COc1ccc(NC(=O)C2c3ccccc3C(=O)N(CC(C)C)C2c2cccs2)cc1 (centres undefined)	0.02548
CSc1ccccc1C(=O)Nc1nc(-c2ccccn2)cs1	75.6
CSC1=NC(=Nc2c(C)cccc2C)C2(CCC(C(C)(C)C)CC2)N1c1ccc(Cl)cc1 (centres undefined)	-57.3
O=C(CCc1ccco1)NC1CCN(CC2(c3ccc(Cl)cc3)CCC2)CC1	-27.18
COc1ccc(C)c2sc(N(Cc3cccnc3)C(=O)c3ccc(C#N)cc3)nc12	-2.161
C[n+]1c2ccccc2nc2ccc(NCCO)cc21	-27.1
COCCNCC(O)Cn1c2ccc(Cl)cc2c2cc(Cl)ccc21 (centres undefined)	-20.11
COc1ccccc1CNC(=O)CCn1c(=O)[nH]c2ccccc2c1=O	3.729

Compound	Inhibition [%]
Cc1ccc2c(C)nc(Nc3nc(C)cc(-c4ccccc4)n3)nc2c1	-62.95
COc1ccc2c(c1OC)C(=O)N1c3ccccc3N=C(c3ccc(C)cc3)CC21 (centres undefined)	-57.7
c1ccc(Cn2c(N=Nc3c(Nc4ccccc4)ccc4ccccc34)nc3ccccc32)cc1	2.817
CCN(CC)CCn1c(=N)n(CC(O)c2ccc(Cl)c(Cl)c2)c2ccccc21.Cl (centres undefined)	14.91
COc1ccc2sc(N(Cc3cccnc3)C(=O)c3ccc(C#N)cc3)nc2c1	39.49
CC(C)(C)CC(C)(C)NCC(O)COc1ccc(Cl)cc1Cl (centres undefined)	15.77
COc1ccc(-c2c(C)nn3c(N)c(C#N)cnc23)cc1OC	-20.9
CCCCc1c(C)nc2c(OC)cccc2c1O	-24.29
CCOc1ccc(Nc2ccnc3cc(Cl)ccc23)cc1	-43.83
O=C(Nc1ccc(Cl)c(Cl)c1)Nc1ccc(Cl)c(Cl)c1	79.74
CCOc1cccc(C(=O)Nc2ccc(-c3nc4ccccc4[nH]3)cc2)c1	-2.618
Cc1cc(Nc2ccc(Cl)cc2)n2nc(C(F)(F)F)nc2n1	36.64
CCOc1c(Cl)cc(CNC(C)C(O)c2ccccc2)cc1OC (centres undefined)	-2.917
COc1ccc(-c2nc(N3CCN(C(=O)C4CCCCC4)CC3)c3c4c(sc3n2)CCCC4)cc1	-3.496
O=C(Cc1ccccc1)NC(c1ccc(Cl)cc1)c1c(O)ccc2ccccc12 (centres undefined)	-13.28
O=C(Nc1ccc(Br)cc1)Nc1cccc(Cl)c1	-51.26
Cc1ccc(C)c(Cn2c(N3CCC(C(=O)NCc4cccs4)CC3)nc3ccccc32)c1	-14.3
CCOC(=O)c1cn(CC)c2cc(N3CCCCC3)c(F)cc2c1=O	6.363
CCOc1cc2c(cc1OCC)C(c1cc(Cl)ccc1O)NCC2 (centres undefined)	-2.297
COc1ccc(C(O)(CCC(C)C)C(CN2CCOCC2)c2ccc(Cl)cc2)cc1.Cl (centres undefined)	-51.44
O=C(Nc1ccccc1O)c1ccc(Oc2cccc(C(=O)Nc3ccccc3O)c2)cc1	-14.93
FC(F)(F)c1cccc(CNC2CCN(CCc3ccccc3)CC2)c1	-52.87
COc1cc(C(=O)Nc2nc3c(cc4c5c(cccc53)CC4)s2)cc(OC)c1OC	-26.05
CCN(Cc1ccccc1)C1CCN(Cc2cc(Br)ccc2O)CC1.O=C(O)C(=O)O	-6.655
COc1cc(OC)cc(N2C(=O)N(Cc3ccc(C(C)(C)C)cc3)c3ccccc3S2(=O)=O)c1	-14.44

Compound	Inhibition [%]
Br.CCN(CC)S(=O)(=O)c1ccc(-c2csc(Nc3ccc(C)c(C)c3)n2)cc1	-28.35
Cc1cc(NC(=O)c2cccc(C(F)(F)F)c2)n(-c2nc(-c3ccc4c(c3)OCO4)cs2)n1	-22.88
O=C(Nc1nc(-c2ccccn2)cs1)c1ccccc1Br	62.15
CCOc1ccc(-c2nonc2NC(=O)c2cccc(C)c2)cc1OCC	2.223
CN(C)c1ccc(N2C(N)=NC(N)=NC2(C)C)cc1	-33.57
CN(C)CCCNc1c2ccccc2nc2ccccc12	55.64
CC(C)(C)CC(C)(C)NCC(O)COc1ccc2c(c1)CCC2.Cl (centres undefined)	-49.34
O=C(NC1CCN(Cc2ccccc2)CC1)c1cc(-c2ccncc2)nc2ccc(Cl)cc12	13.62
CCOc1ccc(CN2CCN(CC(O)COc3ccc(OCC(O)CN4CCN(Cc5ccc(OCC)cc5)CC4)cc3)CC2)cc1 (centres undefined)	1.883
COc1ccc(OC)c(C2C3=C(CC(C)(C)CC3=O)N(c3ccc(Cl)c(Cl)c3)C3=C2C(=O)CC(C)(C)C3)c1	2.896
COc1cccc(C=Cc2nc(=O)c3ccccc3o2)c1OC	44.65
COc1ccc(-c2cc(=O)oc3c4c(ccc23)OCN(Cc2ccc(F)cc2)C4)cc1	-0.4054
Cc1ccc(S(=O)(=O)c2c(COC(=O)c3cccc(C)c3)c(-c3ccccc3)nn2C)cc1	-24.68
Cc1cc(N(C)C)nc(Nc2ccc(NC(=O)Nc3ccccc3)cc2)n1	-29.16
COc1ccccc1CNC(=O)CCn1c(=O)[nH]c2ccsc2c1=O	-10.39
COc1cc(OC)c(N(C)C(=O)c2cc3c(s2)-c2ccccc2S(=O)(=O)C3)cc1Cl	-25.68
COc1cc(C(=O)ON=C(N)Cc2cccc3ccccc23)cc(OC)c1OC	26.07
COc1ccc(-c2cn3c(C(=O)Nc4ccccc4Cl)c(-c4ccccc4)c4c3n2CCCC4)cc1	34.31
Clc1ccc2[nH]c3c(NCCCN4CCOCC4)ncnc3c2c1	37.37
O=C(NNc1cc(N2CCCC2)nc(N2CCCC2)n1)c1ccccc1	-52.02
CCCCc1c(CCC)c(=N)c2ccccc2n1C.I	11.94
O=C(O)C(=O)O.Oc1ccc(Br)cc1CN1CCN(Cc2cccc(F)c2)CC1	-34.58
COc1cccc(NC(=O)Cn2c(C)c(C#N)c3ccccc32)c1	14.16
O=C(Nc1ccc(Cl)cc1)N1CCN(c2ccc3nncn3n2)CC1	64.92
CCOC(=O)c1cnc2ccc(Cl)cc2c1NCCCN(C)C	28.81

Compound	Inhibition [%]
O=C(NC(c1ccccc1)c1ccc2cccnc2c1O)c1ccccc1 (centres undefined)	59.29
CCOC(=O)C1=CN(C)C=C(C(=O)OCC)C1c1cc(Br)c(OCC)c(OC)c1	-2.299
Cc1ccc(N2C3c4ccccc4N(S(=O)(=O)c4ccc(C)cc4)C2c2ccccc2N3S(=O)(=O)c2ccc(C)cc2)cc1	-51.15
CCCCN(CCCC)S(=O)(=O)c1ccc(NC(=O)c2ccco2)cc1	-29.51
CCN(CC)c1ccc(NC(=O)c2cccs2)cc1	-55.73
CN(C)c1ccc(C(O)(c2ccc(N(C)C)cc2)c2ccc(N(C)C)cc2)cc1 [METHYLROSANILINE]	77.77
Cc1ccc(-c2cc3c(nn2)-c2ccccc2C3=O)cc1	-55.29
Cc1ccc(-c2nc3ccccc3o2)cc1NCc1cc(Cc2ccccc2)ccc1O	20.55
COc1ccc(CCN2CCC(CN(C)Cc3cnn(-c4ccccc4)c3)CC2)cc1	-0.7856
O=C(Nc1ccc(-c2nc3cc4ccccc4cc3[nH]2)cc1)c1cccc(Br)c1	-10.01
Cc1ccc(CN2CCC(C(=O)Nc3ccc(-c4cc5ccccc5[nH]4)cc3)CC2)o1	45.39
COc1nc(Nc2ccc(C(C)C)cc2)nc(OC)n1	4.363
COc1ccc(C2c3ccc4ccccc4c3Oc3ncn(CCCN(C)C)c(=N)c32)cc1 (centres undefined)	9.024
Cc1[nH]c(-c2ccc(F)cc2)cc1C(=O)NC1CCN(Cc2ccccc2)CC1	-23.5
CCCN(CCC)CCCNC(=O)c1cc2c(-c3ccc(OC)c(OC)c3)nn(C)c2s1	32.69
CCOc1ccccc1CNC(=O)C1c2ccccc2C(=O)N(CC(C)C)C1c1cccs1 (centres undefined)	-30.75
COc1ccc(-n2ccnc2SCC(=O)Nc2cc(C)ccc2C)c(OC)c1	-14.53
COc1ccc(Nc2nc(NCc3ccccc3)c3ccccc3n2)cc1	49.98
COc1ccc(-c2nc3cc(Cc4ccc5[nH]c(-c6ccc(OC)cc6)nc5c4)ccc3[nH]2)cc1	35.52
Cc1ccc(-c2cc(C(=O)Nc3ccc(S(=O)(=O)N4CCCCC4)cc3)[nH]n2)c(O)c1	-59.17
Cc1c(C)n(Cc2ccc(F)cc2)c2ccc(C(=O)NCc3ccco3)cc12	-17.08
CCOC(=O)c1ccc2nc(-c3ccccc3)cc(O)c2c1	-8.454
Cc1cc(NCCN2CCCCC2)c2ccc3ccccc3c2n1	-25.58
O=C1c2ccc3c4c(ccc(c24)C(=O)N1CCCCO)C(=O)N(CCCCO)C3=O	79.86
